# Laboratory results reported in US20240287148A1, “ENGINEERED BIOMOLECULES FOR NUTRIENT REPROGRAMMING” (CORNELL UNIVERSITY, priority 2021, published 2024).
# Where a SMILES comes first, the peptide text is derived from it. The star is where a group is joined. Cbz = O=C(OCc1ccccc1)*; CH2F = FC*
# Key:
# ATF4 = ATF4 expression in MEF cells (western blotting, RT-qPCR of Atf4); format: cell-based, mouse; settings: for ATF4 induction in cystine-starved cells: cystine deprivation
# Protocol: For cystine and methionine deprivation, the experiment was carried out by incubating cells in DMEM, high glucose, no glutamine, no methionine, no cystine (Thermo Fisher: 21013024) with 10% dialyzed FBS (Sigma Aldrich: F0392). For leucine, histidine, and arginine deprivation, the experiment was carried out by incubating cells in DMEM, high glucose, no arginine, no histidine, no leucine, respectively, (custom prepared by Gibco/Invitrogen) with 10% dialyzed FBS (Sigma Aldrich: F0392). For full amino acid starvation, the experiment was carried out by incubating cells in HBSS buffer (Lonza) with 10% dialyzed FBS (Sigma Aldrich: F0392). Samples were collected at indicated experimental time points.
# Following experimental conditions, total RNA was isolated by TRIzol reagent (Invitrogen) and reverse transcription was performed using High-Capacity cDNA Reverse Transcription Kit (Invitrogen). Real-time PCR analysis was conducted using Power SYBR Green PCR Master Mix (Applied Biosystems) and data was generated using a LightCycler 480 Real-Time PCR System (Roche Applied Science). qPCR oligo sequences are listed in Table 4.
# (§1) Cells were washed with PBS (Gibco) and then lysed on ice using cell lysis buffer (50 mM Tris [pH7.5], 150 mM NaCl, 1 mM EDTA, 1% Triton X-100, 2 U/ml DNase and protease inhibitor cocktail tablet). The lysates were incubated on ice for 30 min and spun down at 10,000 rpm for 3 mins to collect supernatant. Collected supernatant was measured by protein assay (Bio-Rad: 500-0112) to quantify the protein concentration. Equal amounts of proteins across samples were mixed with SDS-PAGE sample buffer (50 mM Tris [pH6.8], 100 mM dithiothreitol, 2% SDS, 0.1% bromophenol blue, 10% glycerol) and heated for 9 mins at 95° C. Denatured proteins were separated on SDS-PAGE and transferred to PVDF membranes (Fisher). Membranes were blocked in TBS containing 5% non-fat milk and 0.1% Tween-20 for 1 hr. Phospho-proteins were blocked in TBS containing 5% BSA and 0.1% Tween-20 for 1 hr. Blocking was followed by incubation with primary antibodies overnight at 4° C. Membranes were washed using TBST followed by subsequent incubation using horseradish peroxidase-coupled secondary antibodies at room temperature for 1 hr. Immunoblots were washed again using TBST and visualized using enhanced chemiluminescence (ECL-Plus, GE Healthcare).
# MEF cells [1] = assay: Lipid peroxidation measurement (C11-BODIPY, flow cytometry) in MEF cells; format: cell-based, mouse; settings: for lipid oxidation in cystine-starved cells (C11-BODIPY): cystine deprivation 18 hrs, BafA1 50 nM or ConA
# Protocol: Cells were plated in 6-well dishes and followed by indicated treatments. After treatment, cells were incubated with fresh medium containing 2 μM BODIPY 581/591 C11 dye (Invitrogen: D3861) for 15 min. Cells were next collected and washed twice with ice-cold PBS followed by fluorescence-activated cell sorting (FACS) analysis using Thermo Fisher Attune NxT. Fluorescence captured during analysis was gated and plotted using FCS Express 7.
# NRF2 = assay: ARE-driven Fluc reporter assay (NRF2 activity) in MEF cells; format: cell-based, mouse; settings: cystine starvation 8 hr, BafilomycinA 50 nM or ConcanamycinA 100 nM
# Protocol: (§2) Firefly luciferase reporters were co-transfected with a Renilla reporter plasmid into MEF cells or CTNS knockdown cells for 4 hrs. Transfected cells were treated with amino acid starvation and/or compound treatment at indicated timepoints. Firefly and Renilla luciferase activities were measured using Dual-Luciferase Reporter Assay System (Promega). Relative values of firefly luciferase activities were normalized to Renilla luciferase control.
# MEF cells [2] = assay: Intracellular cysteine and cystine measurement in MEF cells (HPLC); format: cell-based, mouse
# Protocol: Cells were grown on 100 mm dishes until 80-90% confluent. Cells were lysed on ice in lysis buffer (50 mM Tris [pH7.5], 150 mM NaCl, 1 mM EDTA, 1% Triton X-100, 2 U/ml DNase and protease inhibitor cocktail tablet), followed by centrifugation at 10,000 rpm for 8 min at 4° C. The supernatant was collected and 100 μL of sample was mixed with 10 μL TCEP (50 mM in borate buffer [pH 7.4]) (Sigma Aldrich) in a vial and incubated at 25° C. for 10 min.
# 90 μL of a solution containing 1% TCA and 1 mM EDTA was then added. The total solution was centrifuged for 10 min at 10,000 g at 4° C. 100 μL of the obtained supernatant, 20 μL of 10 mM CNBF solution (4-chloro-3,5-dinitrobenzotrifluoride [Sigma Aldrich: 197017]), 20 μL of methanol, and 50 μL of borate buffer (0.2 M [pH 8.0])) were mixed and incubated at 25° C. for 20 min. Derivatization was terminated with 10 μL of 2M HCl followed by HPLC analysis (see below).
# Cells were grown on 100 mm dishes until 80-90% confluent. Cells were lysed on ice in lysis buffer (50 mM Tris [pH7.5], 150 mM NaCl, 1 mM EDTA, 1% Triton X-100, 2 U/ml DNase and protease inhibitor cocktail tablet). 100 μL of sample was mixed with 100 μL of 6%5-Sulfosalicylic Acid Dyhydrate solution (Sigma: S3147), followed by centrifugation at 3,000 g for 15 min at 4° C. The supernatant was collected and 25 μL of freshly made derivatizing solution was added. Samples sat at room temperature for 20 mins, followed by rotary evaporation. Dried material was dissolved in 150 μL of phase A solution followed by HPLC analysis (see below).
# All resulting solutions for cysteine, glutathione, and cystine were filtered through a 0.22 μm filter membrane (Millipore Corporation, Belfast, MA, USA) and injected into a chromatographic system. High performance liquid chromatography (HPLC) was performed using a LC-20AT pump with a SPD-20AV UV-vis detector monitored at 270 and 220 nm (Shimadzu, Japan) equip with an Ultra Aqueous C18 column (100 Å, 5 μm, 250 mm×4.6 mm; Restek, USA) at a flow rate of 1 mL/min with a mobile phase containing 0.1% trifluoroacetic acid (TFA) in H2O or acetonitrile. Values were normalized to protein concentration by Bradford assay.
# MEF cells [3] = assay: Cell viability assay (ferroptosis) in MEF cells; format: cell-based, mouse; settings: for cell death under cystine restriction (cell viability): Necrostatin 5 μM, Ferrostatin 1 μM
# Protocol: Cells were seeded into 96-well plates at 3,000 cells per well. After 16 hr, cells were subject to conditions of the indicated experiments. Cells were incubated for 24 hr in their experimental conditions and cell viability was measured using the CellTiter-Blue viability assay (Promega) following the manufacturer's instructions. Relative cell viability in the presence of starvation and/or compounds was normalized to the vehicle-treated controls after background subtraction.
# Atf4 promoter = assay: Atf4 promoter-driven Fluc reporter assay in MEF cells; format: cell-based, mouse; settings: BafilomycinA 50 nM 8 hrs with or without cystine deprivation
# Protocol: as §2
# MEF cells [4] = assay: Cell fractionation and western blotting of MEF cells transfected with CysRx; format: cell-based, mouse; settings: BafilomycinA 50 nM for 12 hrs
# Protocol: as §1
# MEF cells were grown in four 15 cm dishes until 80% confluent (˜3×10^8 cells) followed by washing twice with ice-cold PBS. […]
# UMRC6 tumors = assay: CysRx treatment of xenografted UMRC6 tumors in mice (tumor growth); format: in vivo, mouse; settings: IKE 10 mg/kg intraperitoneal every other day, 25 days
# Protocol: (§3) Previously established UMRC6 tumors were immediately excised from CO2 euthanized mice and minced using a surgical 10 blade. Approximately […] portions of tumor were bilaterally implanted into 6-8-week-old NSG mice. Animals were monitored for tumor growth and randomized into treatment groups when tumors reached 150-200 mm^3 in size. IKE/vehicle treated animals received intraperitoneal injections every other day (10 mg/kg). CysRx-TT3 treatment was conducted via weekly intratumoral (IT) injections (100 μL) for three weeks. Tumors for IT injections were demarcated into four quadrants and an equal volume (25 μL) of CysRx-TT3 was injected into each quadrant. HiBit-TT3 was injected into the other flank as control. Mice were monitored for tumor growth three times per week using digital calipers. Health and body condition were also monitored concurrently. Animals were sacrificed by CO2 euthanasia (3.5 L/min) one week after final administration or when the body condition started to deteriorate. Tumors were excised from the flank using a surgical 10 blade, weighed and either flash frozen or fixed in 4% PFA.
# Magnetic resonance imaging (MRI) of mice was conducted using a 1T M3 compact MRI from Aspect Imaging Ltd. Mice were anesthetized using 2.5% isoflurane and placed onto the specimen arm, coil was then placed around the subject and fixed in place. […]
# [5] = Body weight of tumor-bearing mice; format: in vivo, mouse; settings: mice with UMRC6 tumors; IKE 10 mg/kg/2d intraperitoneal; CysRx-TT3 intratumoral
# Protocol: as §3
# [6] = BafilomycinA 50 nM for 12 hrs, normalized to protein
# [7] = MEF cells, cystine deprivation 24 hrs, BafilomycinA 50 nM or ConcanamycinA 100 nM
# [8] = MEF cells, 24 hrs cystine deprivation, Z-VAD 20 μM
smiles,measurement,setting,value
"CO/C1=C\C(C)=C\[C@@H](C)[C@@H](O)[C@@H](C)C/C(C)=C/C=C/[C@H](OC)[C@@H]([C@@H](C)[C@@H](O)[C@H](C)[C@@]2(O)C[C@@H](O)[C@H](C)[C@@H](C(C)C)O2)OC1=O [BafA1, bafilomycin A1]",ATF4 induction in cystine-starved cells,"ATF4; MEF cells, BafilomycinA 50 nM 8 hrs, ConcanamycinA 100 nM 12 hrs",greatly potentiated
same,lipid oxidation in cystine-starved cells (C11-BODIPY),MEF cells [1],significantly reduced
same,NRF2 activation (ARE Fluc reporter),NRF2,prevented
same,cysteine level,MEF cells [2]; [6],increase
same,cystine level,MEF cells [2]; [6],decrease
same,cytosolic cysteine level in cystine-starved cells,"MEF cells [2]; cystine deprivation, BafilomycinA 50 nM 12 hrs",partially restored
same,ferroptosis in cystine-starved cells (cell viability),MEF cells [3]; [7],prevented
same,Atf4 promoter-driven Fluc activity (normalized to Renilla),Atf4 promoter,transcriptional upregulation
same,CysRx level (western blotting),MEF cells [4],CysRx accumulation
C[C@@H]1C[C@@H]([C@H](O)CC2CC(=O)NC(=O)C2)C(=O)[C@@H](C)C1 [cycloheximide],intracellular cyst(e)ine levels,"MEF cells [2]; 12 hrs amino acid starvation, Cycloheximide 50 μM",largely restored
same,ferroptosis induced by erastin and sulfasalazine (cell viability),"MEF cells [3]; MEF cells, 24 hrs Erastin 20 μM or Sulfsalazine 200 μM, Cycloheximide 50 μM",partially rescued
same,"increased ferroptosis susceptibility under cystine deprivation (cell viability, lipid ROS)","MEF cells [3]; MEF cells, 24 hrs cystine deprivation, Cycloheximide 50 μM",prevented
CCOC(=O)c1ccc(NC2CCCCC2)c(N)c1 [ferrostatin-1],cell death under cystine restriction (cell viability),MEF cells [3]; [8],prevented
CC(C)n1cnc2c(NCCc3ccc(O)cc3)nc(-c3csc4ccccc34)nc21 [SR1],ATF4 induction in cystine-starved cells,"ATF4; MEF cells, SR1 200 nM or Indirubin 2 μM",significantly reduced
same,ferroptosis of cystine-starved cells (cell viability),"MEF cells [3]; MEF cells, cystine deprivation 24 hrs, SR1 200 nM or Indirubin 2 μM",promoted
COC(=O)C[C@H](NC(=O)[C@H](C)NC(=O)[C@@H](NC(=O)OCc1ccccc1)C(C)C)C(=O)CF [Z-VAD] (Cbz-Val-Ala-Asp(OMe)-CH2F),cell death under cystine restriction (cell viability),MEF cells [3]; [8],not
same,reduced cell viability under full amino acid starvation,"MEF cells [3]; MEF cells, 24 hrs full amino acid starvation, Z-VAD 20 μM",rescued
O=C1O[C@H]([C@@H](O)CO)C(O)=C1O [ascorbic acid],ATF4 induction upon cystine starvation,"ATF4; MEF cells, 8 hrs cystine starvation, Ascorbic Acid 20 μM",little effects
same,ATF4 expression induced by homocysteic acid (HCA),"ATF4; MEF cells, HCA 10 mM, Ascorbic Acid 20 μM",attenuated
O=C(O)c1cc(/N=N/c2ccc(S(=O)(=O)Nc3ccccn3)cc2)ccc1O [sulfasalazine],susceptibility of cells lacking cystinosin (cell viability),"MEF cells [3]; MEF cells with CTNS knockdown, Erastin 20 μM, Sulfsalazine 200 μM",highly susceptible
same,ferroptosis (cell viability),"MEF cells [3]; MEF cells, 24 hrs, Erastin 20 μM, Sulfsalazine 200 μM",induced
"C/C=C/[C@H]1O[C@@](O)([C@@H](C)[C@H](O)[C@H](C)[C@H]2OC(=O)/C(OC)=C/C(C)=C/[C@@H](C)[C@@H](O)[C@@H](CC)[C@@H](O)[C@H](C)C/C(C)=C/C=C/[C@@H]2OC)C[C@@H](O[C@H]2C[C@@H](O)[C@H](OC(N)=O)[C@@H](C)O2)[C@@H]1C [ConA, concanamycin A]",lipid oxidation in cystine-starved cells (C11-BODIPY),MEF cells [1],significantly reduced
same,NRF2 activation (ARE Fluc reporter),NRF2,prevented
same,ferroptosis in cystine-starved cells (cell viability),MEF cells [3]; [7],prevented
N[C@@H](CCS(=O)(=O)O)C(=O)O [homocysteic acid],ATF4 expression,"ATF4; MEF cells, HCA 10 mM",induced
"CN1C(=O)C(Cc2c[nH]c3ccccc23)NC1=S (stereo not drawn) [necrostatin, necrostatin-1]",cell death under cystine restriction (cell viability),MEF cells [3]; [8],not
O=C(COc1ccc(Cl)cc1)NC1CCC(NC(=O)COc2ccc(Cl)cc2)CC1 (stereo not drawn) [ISRIB],cystine shortage-induced ATF4 upregulation (western blotting),"ATF4; eIF2a(S/S) and eIF2a(A/A) MEF cells, 8 hrs amino acid starvation, ISRIB 100 nM",insensitive
"CC(C)Oc1ccc(C(=O)Cn2ccnc2)cc1-n1c(CN2CCN(C(=O)COc3ccc(Cl)cc3)CC2)nc2ccccc2c1=O [IKE, imidazole ketone erastin]",tumor growth,UMRC6 tumors,suppressed
same,body weight,[5],weight loss
"CCCCS(=N)(=O)CCC(N)C(=O)O (stereo not drawn) [BSO, buthionine sulfoximine]",ATF4 expression,"ATF4; MEF cells, BSO 10 μM, 8 hrs",induced
NCCS [cysteamine],ATF4 induction under the cystine rich condition,"ATF4; MEF cells, Cysteamine 0.5 mM, 12 hrs",pronounced ATF4 induction
same,lipid oxidation in cystine-starved cells,"MEF cells [1]; cystine deprivation, Cysteamine 0.5 mM for 18 hrs",eliminated
same,cysteine in the cytosol,"MEF cells [2]; Cysteamine 0.5 mM, 12 hrs",increase
same,lysosomal cystine level,"MEF cells [2]; Cysteamine 0.5 mM, 12 hrs",readily depleted
same,ferroptotic cell death of cells lacking cystinosin,"MEF cells [3]; MEF cells with CTNS knockdown, 24 hrs cystine deprivation, Cysteamine 0.5 mM",rescued
same,ferroptosis in cystine-starved cells (cell viability),"MEF cells [3]; MEF cells, cystine deprivation, Cysteamine 0.5 mM for 24 hrs",rescued
